Values quoted from earlier work, collected in paper PMC4026281 (Journal of neurochemistry, 2012).

Test system: rat α6/3β2 chimeric nAChRs
Settings: cited from earlier work

α-conotoxin MII [α-CtxMII]
t1/2 of recovery from α-CtxMII inhibition, rat α6/3β2 chimeric nAChRs: > 20 min
